Experimental data reported in paper PMC2912430 (Biochemistry, 2010).
“And” between values parts separate entries of the source, which are not always exact repeats. Equal entries are not always repeated.

What was measured:
[1] = biological target: T1, Thermus thermophilus IDI-2 (Thermus thermophilus, UniProt Q53W52); assay: Acid lability assay, inhibition of the isomerization of IPP to DMAPP by IDI-2; type: biochemical; details: for Type of inhibition: isomerization of IPP to DMAPP catalyzed by IDI-2
[2] = biological target: T1, Thermus thermophilus IDI-2; assay: Product studies by 1H NMR, incubation with IDI-2; type: biochemical; details: for Isomerization (turnover as substrate) by NMR: IDI-2, 37 °C, spectra at one-hour intervals over 12 h; for Reactivity relative to the natural substrates (times less reactive): IDI-2, estimate based on NMR studies
Escherichia coli IDI-1 [3] = biological target: T2, Escherichia coli IDI-1 (Escherichia coli, UniProt Q46822); assay: Acid lability assay, inhibition of the isomerization of IPP to DMAPP by IDI-1; type: biochemical; details: for Type of inhibition: isomerization of IPP to DMAPP catalyzed by IDI-1
T2 sequence (Q46822 whole entry): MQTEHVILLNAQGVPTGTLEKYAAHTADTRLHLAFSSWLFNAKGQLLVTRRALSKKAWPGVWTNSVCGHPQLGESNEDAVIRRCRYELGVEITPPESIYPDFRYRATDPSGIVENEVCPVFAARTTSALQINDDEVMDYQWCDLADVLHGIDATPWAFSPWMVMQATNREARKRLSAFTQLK

Escherichia coli IDI-1 [4] = biological target: T2, Escherichia coli IDI-1; details: cited from earlier work
[5] = biological target: T1, Thermus thermophilus IDI-2; details: cited from earlier work
IDI-1 = details: positively charged ammonium group at physiological pH; cited from earlier work

Q: Which results are given for `C#CCCOP(=O)(O)OP(=O)(O)O` [1-OPP, 3-Butyn-1-yl diphosphate]?
A: IC50 [1]: ~50 µM; Type of inhibition [1]: competitive inhibitors; Isomerization (turnover as substrate) by NMR [2]: no evidence was seen for isomerization; Reactivity relative to the natural substrates (times less reactive) [2]: at least 1000 times; IC50 (Escherichia coli IDI-1 [3]): ~200 µM; Type of inhibition (Escherichia coli IDI-1 [3]): competitive inhibitors

Q: Which results are given for `C=C=CCOP(=O)(O)OP(=O)(O)O` [2-OPP, 2,3-Butadien-1-yl diphosphate]?
A: IC50 [1]: ~50 µM; Type of inhibition [1]: competitive inhibitors; Isomerization (turnover as substrate) by NMR [2]: no evidence was seen for isomerization; Reactivity relative to the natural substrates (times less reactive) [2]: at least 1000 times; IC50 (Escherichia coli IDI-1 [3]): ~200 µM; Ki (Escherichia coli IDI-1 [3]; KI, IDI-1, acid lability assay, competitive inhibition): 49 µM and 31 µM; Type of inhibition (Escherichia coli IDI-1 [3]): competitive inhibitors

Q: With `CC(C)=CCOP(=O)(O)OP(=O)(O)O` [DMAPP, dimethylallyl diphosphate] as the molecule, how does the Km (Escherichia coli IDI-1 [4]) read?
A: Its Km is 14 µM.

Q: Which Km [5] does the source give for `C=C(C)CCOP(=O)(O)OP(=O)(O)O` [IPP, isopentenyl diphosphate] here?
A: Its Km is 5.6 µM.

Q: What about the Km (Escherichia coli IDI-1 [4]) of the same molecule?
A: Its Km is 7.9 µM.

Q: For `CN(C)CCOP(=O)(O)OP(=O)(O)O` [N,N-Dimethyl-2-amino-1-ethyl diphosphate], which “Affinity for IDI-1” value (IDI-1) is on record?
A: The value was “sub-nanomolar affinity”.
